Results on 18 compounds are retold here after patent publication US20230365576A1, “BRM Targeting Compounds And Associated Methods Of Use” (Prelude Therapeutics Incorporated, priority 2022, published 2023).

One experiment concerns the target T1, SMARCA2 (Homo sapiens, UniProt P51531).
T1 construct: SMARCA2-HiBiT knock-in Hela monoclonal cell (CS302366); host or cells: HeLa (CRISPR HiBiT knock-in monoclonal line, heterozygous)
The experiment can be described thus: SMARCA2 HiBiT degradation assay in HeLa cells. Particulars: 18 hours; for DC50: read-out: SMARCA2 IC50; for Dmax: HeLa. It counts as cell-based. The method, boiled down:
(§1)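 Degradation measured as HiBiT luminescence (Nano-Glo lytic reagent) after 18 h compound exposure at 37° C. Cells were HeLa clones carrying heterozygous HiBiT tags on SMARCA2 or SMARCA4, 2500 per well; compounds at 3-fold serial dilution from 10 μM.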
For orientation: The HiBiT peptide binds its large partner to form an active luciferase.

A further experiment concerns the target T2, SMARCA4 (Homo sapiens, UniProt P51532).
T2 construct: SMARCA4-HiBiT knock-in Hela monoclonal cell (CS3023226) were purchased from Promega; host or cells: HeLa (CRISPR HiBiT knock-in monoclonal line, heterozygous)
The experiment can be described thus: SMARCA4 HiBiT degradation assay in HeLa cells. It counts as cell-based. Particulars: 18 hours; for Dmax: HeLa. The method, boiled down:
as §1

T2 sequence (P51532 whole entry): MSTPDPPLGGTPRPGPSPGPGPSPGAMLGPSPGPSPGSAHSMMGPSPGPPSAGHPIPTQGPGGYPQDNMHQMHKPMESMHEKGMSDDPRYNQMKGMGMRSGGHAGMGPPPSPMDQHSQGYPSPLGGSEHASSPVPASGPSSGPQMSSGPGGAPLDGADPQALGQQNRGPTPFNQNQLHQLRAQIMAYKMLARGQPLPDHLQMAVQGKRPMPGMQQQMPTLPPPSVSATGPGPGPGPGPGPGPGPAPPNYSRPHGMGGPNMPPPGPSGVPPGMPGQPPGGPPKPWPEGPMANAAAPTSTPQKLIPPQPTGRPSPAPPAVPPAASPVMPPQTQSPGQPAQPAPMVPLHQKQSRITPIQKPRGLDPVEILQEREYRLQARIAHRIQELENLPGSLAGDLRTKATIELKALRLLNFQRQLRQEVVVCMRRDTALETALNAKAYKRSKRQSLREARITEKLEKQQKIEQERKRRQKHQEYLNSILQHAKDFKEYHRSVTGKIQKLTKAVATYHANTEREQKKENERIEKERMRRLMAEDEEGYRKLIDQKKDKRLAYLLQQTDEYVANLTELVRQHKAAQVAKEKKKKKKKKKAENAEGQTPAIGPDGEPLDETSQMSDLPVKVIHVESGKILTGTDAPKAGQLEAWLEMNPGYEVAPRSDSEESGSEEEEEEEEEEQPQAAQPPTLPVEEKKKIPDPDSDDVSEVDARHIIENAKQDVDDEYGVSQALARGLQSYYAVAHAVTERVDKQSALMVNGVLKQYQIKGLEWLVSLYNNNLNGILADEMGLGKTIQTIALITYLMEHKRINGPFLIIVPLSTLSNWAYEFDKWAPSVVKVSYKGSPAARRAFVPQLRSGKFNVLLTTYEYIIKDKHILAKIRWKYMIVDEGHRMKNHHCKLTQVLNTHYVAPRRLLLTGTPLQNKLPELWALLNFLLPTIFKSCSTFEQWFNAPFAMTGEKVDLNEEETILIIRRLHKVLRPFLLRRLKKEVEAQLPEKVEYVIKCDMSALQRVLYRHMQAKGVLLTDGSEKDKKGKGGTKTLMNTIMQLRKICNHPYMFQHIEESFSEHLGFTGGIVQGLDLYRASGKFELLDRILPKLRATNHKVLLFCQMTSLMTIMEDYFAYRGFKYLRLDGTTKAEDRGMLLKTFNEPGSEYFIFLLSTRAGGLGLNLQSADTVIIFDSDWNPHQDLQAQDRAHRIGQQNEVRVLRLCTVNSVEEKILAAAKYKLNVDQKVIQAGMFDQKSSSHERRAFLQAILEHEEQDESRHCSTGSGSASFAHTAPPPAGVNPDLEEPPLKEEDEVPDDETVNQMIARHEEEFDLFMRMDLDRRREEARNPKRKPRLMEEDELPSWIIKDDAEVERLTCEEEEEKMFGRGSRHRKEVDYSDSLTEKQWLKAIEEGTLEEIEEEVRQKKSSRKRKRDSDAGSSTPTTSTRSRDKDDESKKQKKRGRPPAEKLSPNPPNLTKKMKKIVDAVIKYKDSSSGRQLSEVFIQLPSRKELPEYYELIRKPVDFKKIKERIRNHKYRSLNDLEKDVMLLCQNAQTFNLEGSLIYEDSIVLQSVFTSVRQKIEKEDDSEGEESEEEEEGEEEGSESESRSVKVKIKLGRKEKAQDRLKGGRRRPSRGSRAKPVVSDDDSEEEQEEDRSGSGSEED
T1 sequence (P51531 whole entry): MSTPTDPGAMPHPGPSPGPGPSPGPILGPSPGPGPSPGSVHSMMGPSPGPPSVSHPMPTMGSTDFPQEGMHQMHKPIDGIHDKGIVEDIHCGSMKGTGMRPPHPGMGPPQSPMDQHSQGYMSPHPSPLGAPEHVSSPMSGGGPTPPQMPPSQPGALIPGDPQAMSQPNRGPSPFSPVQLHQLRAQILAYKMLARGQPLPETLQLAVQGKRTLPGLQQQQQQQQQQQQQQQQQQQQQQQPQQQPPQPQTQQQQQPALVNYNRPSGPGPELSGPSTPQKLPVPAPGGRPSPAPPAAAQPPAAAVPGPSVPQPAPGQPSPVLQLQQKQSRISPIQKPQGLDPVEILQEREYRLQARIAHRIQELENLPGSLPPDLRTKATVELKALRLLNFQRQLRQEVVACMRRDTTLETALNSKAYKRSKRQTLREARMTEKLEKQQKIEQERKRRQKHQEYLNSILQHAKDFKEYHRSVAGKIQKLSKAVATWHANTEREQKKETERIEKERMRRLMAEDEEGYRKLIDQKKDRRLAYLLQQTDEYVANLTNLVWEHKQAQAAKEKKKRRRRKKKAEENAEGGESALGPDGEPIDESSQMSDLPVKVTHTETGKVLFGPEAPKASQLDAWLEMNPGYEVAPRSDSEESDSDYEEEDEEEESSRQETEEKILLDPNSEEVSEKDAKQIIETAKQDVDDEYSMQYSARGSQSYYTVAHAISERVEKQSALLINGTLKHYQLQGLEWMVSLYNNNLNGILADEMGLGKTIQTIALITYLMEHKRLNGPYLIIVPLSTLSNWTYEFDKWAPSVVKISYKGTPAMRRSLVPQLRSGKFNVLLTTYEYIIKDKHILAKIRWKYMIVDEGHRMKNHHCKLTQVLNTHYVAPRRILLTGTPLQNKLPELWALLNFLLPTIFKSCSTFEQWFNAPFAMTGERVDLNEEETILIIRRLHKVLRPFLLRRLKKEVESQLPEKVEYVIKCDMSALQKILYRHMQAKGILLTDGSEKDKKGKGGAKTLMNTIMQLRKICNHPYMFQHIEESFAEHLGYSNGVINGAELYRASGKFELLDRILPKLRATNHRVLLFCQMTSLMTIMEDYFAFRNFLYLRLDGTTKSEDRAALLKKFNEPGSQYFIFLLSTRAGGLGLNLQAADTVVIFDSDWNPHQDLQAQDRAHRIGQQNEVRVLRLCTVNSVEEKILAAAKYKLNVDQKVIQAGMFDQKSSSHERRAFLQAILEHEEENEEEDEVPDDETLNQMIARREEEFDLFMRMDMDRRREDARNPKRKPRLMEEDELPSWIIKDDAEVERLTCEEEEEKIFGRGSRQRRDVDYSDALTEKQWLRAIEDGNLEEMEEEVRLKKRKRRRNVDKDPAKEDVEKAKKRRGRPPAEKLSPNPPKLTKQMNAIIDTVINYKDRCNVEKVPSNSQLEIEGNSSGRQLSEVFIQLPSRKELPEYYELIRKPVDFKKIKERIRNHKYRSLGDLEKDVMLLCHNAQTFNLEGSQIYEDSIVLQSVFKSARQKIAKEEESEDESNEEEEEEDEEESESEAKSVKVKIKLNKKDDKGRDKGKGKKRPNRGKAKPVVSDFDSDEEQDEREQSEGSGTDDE

Consider `C[C@@H]1CN(CC2CCN(c3ccc4c(c3)C(=O)N(C3CCC(=O)NC3=O)C4)CC2)C[C@H](C)N1C(=O)N1CCN2c3cc(-c4cc(F)cc(F)c4O)nnc3NCC2(C)C1` (single isomer, unassigned) [Example 34], for which, at SMARCA2, the DC50 is less than 100 nM and the Dmax (as a rule, the greatest extent of degradation seen) is greater than 75%. Further, at SMARCA4, the DC50 was less than 100 nM and the Dmax is greater than 75%.
On to `O=C1CC[C@H](N2Cc3ccc(N4CCN(C[C@H]5CC[C@H](CN6CCN7c8cc(-c9cccc(F)c9O)nnc8NC[C@H]7C6)CC5)CC4)cc3C2=O)C(=O)N1` [Example 114, (S)-3-(6-(4-(((1S,4S)-4-(((S)-2-(3-fluoro-2-hydroxyphenyl)-5,6,6a,7,9,10-hexahydro-8H-pyrazino[1′,2′:4,5]pyrazino[2,3-c]pyridazin-8-yl)methyl)cyclohexyl)methyl)piperazin-1-yl)-1-oxoisoindolin-2-yl)piperidine-2,6-dione], for which, on SMARCA2, the DC50 is less than 100 nM and the Dmax is greater than 75%. At SMARCA4, this compound yielded a DC50 of less than 100 nM and a Dmax of 50 to 75%.
On to `C[C@H]1CN2c3cc(-c4cc(F)cc(F)c4O)nnc3NC[C@H]2CN1C[C@H]1[C@@H]2CN(CC3CN(c4ccc5c(c4)C(=O)N(C4CCC(=O)NC4=O)C5)CCO3)C[C@@H]21` (stereo partly drawn) [Example 50, 3-(6-(2-(((1R,5S,6r)-6-(((6aS,9S)-2-(3,5-difluoro-2-hydroxyphenyl)-9-methyl-5,6,6a,7,9,10-hexahydro-8H-pyrazino[1′,2′:4,5]pyrazino[2,3-c]pyridazin-8-yl)methyl)-3-azabicyclo[3.1.0]hexan-3-yl)methyl)morpholino)-1-oxoisoindolin-2-yl)piperidine-2,6-dione], for which, on SMARCA2, the DC50 was less than 100 nM and the Dmax is greater than 75%. Besides, on SMARCA4, the DC50 is less than 100 nM and the Dmax was in the range of 50 to 75%.
Consider `C[C@@H]1CN(CC2CCN(c3ccc4c(c3)C(=O)N(C3CCC(=O)NC3=O)C4)CC2)C[C@H](C)N1C(=O)N1CCN2c3cc(-c4cccc(Cl)c4O)nnc3NCC2(C)C1` (stereo partly drawn) [Example 30, 3-(6-(4-(((3R,5S)-4-(2-(3-chloro-2-hydroxyphenyl)-6a-methyl-6,6a,7,8,9,10-hexahydro-5H-pyrazino[1′,2′:4,5]pyrazino[2,3-c]pyridazine-8-carbonyl)-3,5-dimethylpiperazin-1-yl)methyl)piperidin-1-yl)-1-oxoisoindolin-2-yl)piperidine-2,6-dione], for which, on SMARCA2, the DC50 is less than 100 nM and the Dmax was greater than 75%. In addition, at SMARCA4, the DC50 is less than 100 nM and the Dmax lay within 50 to 75%.
Consider `CCC12CNc3nnc(-c4cc(F)cc(F)c4O)cc3N1CCN(C(=O)C1(F)CCN(CC3CCN(c4ccc5c(c4)C(=O)N([C@H]4CCC(=O)NC4=O)C5)CC3)CC1)C2` (single isomer, unassigned) [Example 110], for which the DC50 at SMARCA2 and on SMARCA4 was less than 100 nM in each case.
Take `C[C@@H]1C[C@H](CN2CCN(c3ccc4c(c3)C(=O)N([C@H]3CCC(=O)NC3=O)C4)CC2)C[C@H](C)N1C(=O)N1CCN2c3cc(-c4cccc(F)c4O)nnc3NC[C@]2(C(F)F)C1` [Example 72, (S)-3-(6-(4-(((2R,4R,6S)-1-((R)-6a-(difluoromethyl)-2-(3-fluoro-2-hydroxyphenyl)-6,6a,7,8,9,10-hexahydro-5H-pyrazino[1′,2′:4,5]pyrazino[2,3-c]pyridazine-8-carbonyl)-2,6-dimethylpiperidin-4-yl)methyl)piperazin-1-yl)-1-oxoisoindolin-2-yl)piperidine-2,6-dione]: the DC50 on SMARCA2 and on SMARCA4 was less than 100 nM each time. The Dmax at SMARCA2 and on SMARCA4 was greater than 75% throughout.
As for `C[C@@H]1CN(CC2CCN(c3ccc4c(c3)C(=O)N(C3CCC(=O)NC3=O)C4)CC2)C[C@H](C)N1C(=O)N1CCN2c3cc(-c4cc(F)cc(F)c4O)nnc3NCC2(C)C1` (stereo partly drawn) [Example 26, 3-(6-(4-(((3S,5R)-4-(2-(3,5-difluoro-2-hydroxyphenyl)-6a-methyl-6,6a,7,8,9,10-hexahydro-5H-pyrazino[1′,2′:4,5]pyrazino[2,3-c]pyridazine-8-carbonyl)-3,5-dimethylpiperazin-1-yl)methyl)piperidin-1-yl)-1-oxoisoindolin-2-yl)piperidine-2,6-dione], on SMARCA2, the DC50 is less than 100 nM and the Dmax is greater than 75%. Also, at SMARCA4, the DC50 was less than 100 nM and the maximal degradation (Dmax) is greater than 75%.
Take `CCC1CN(CC2CN(c3ccc4c(c3)C(=O)N(C3CCC(=O)NC3=O)C4)C2)CCN1C(=O)N1CCN2c3cc(-c4cc(F)cc(F)c4O)nnc3NC[C@H]2C1` (mixture of isomers) [Example 29, 3-(6-(3-((4-((S)-2-(3,5-difluoro-2-hydroxyphenyl)-6,6a,7,8,9,10-hexahydro-5H-pyrazino[1′,2′:4,5]pyrazino[2,3-c]pyridazine-8-carbonyl)-3-ethylpiperazin-1-yl)methyl)azetidin-1-yl)-1-oxoisoindolin-2-yl)piperidine-2,6-dione]: the DC50 at SMARCA2 and at SMARCA4 was less than 100 nM in each case. Also, the Dmax at SMARCA2 was greater than 75%; on SMARCA4 it was less than 50%.
With `O=C1CCC(N2Cc3ccc(N4CCN(C[C@H]5CC[C@H](C(=O)N6CCN7c8cc(-c9cccc(F)c9O)nnc8NC[C@H]7C6)CC5)CC4)cc3C2=O)C(=O)N1` (stereo partly drawn) [Example 104, 3-(6-(4-(((1S,4r)-4-((S)-2-(3-fluoro-2-hydroxyphenyl)-6,6a,7,8,9,10-hexahydro-5H-pyrazino[1′,2′:4,5]pyrazino[2,3-c]pyridazine-8-carbonyl)cyclohexyl)methyl)piperazin-1-yl)-1-oxoisoindolin-2-yl)piperidine-2,6-dione], on SMARCA2, the DC50 is less than 100 nM and the Dmax was greater than 75%. At SMARCA4, this compound came in with a DC50 of 100 to 1000 nM and a Dmax of less than 50%.
As to `CC12CNc3nnc(-c4cccc(F)c4O)cc3N1CCN(C[C@H]1CC[C@H](CN3CCN(c4ccc5c(c4)C(=O)N([C@H]4CCC(=O)NC4=O)C5)CC3)CC1)C2` (single isomer, unassigned) [Example 117], at SMARCA2, the DC50 was less than 100 nM and the Dmax is greater than 75%. On SMARCA4, this compound had a DC50 of less than 100 nM and a Dmax of 50 to 75%.
Consider `CC1(C)CN(CC2CCN(c3ccc4c(c3)C(=O)N([C@H]3CCC(=O)NC3=O)C4)CC2)CCN1C(=O)N1CCN2c3cc(-c4cccc(F)c4O)nnc3NCC2(CF)C1` (single isomer, unassigned) [Example 90], for which, at SMARCA2, the “SMARCA2 DMax %” value is recorded as “A (A=Dmax>75%)” and the DC50 is less than 100 nM. On SMARCA4, the DC50 was greater than 1000 nM and the “SMARCA4 DMax %” value was “C (C=Dmax<50%)”.
For the compound `CCC12CNc3nnc(-c4cc(F)cc(F)c4O)cc3N1CCN(C(=O)C1(F)CCN(CC3CCN(c4ccc5c(c4)C(=O)N([C@H]4CCC(=O)NC4=O)C5)CC3)CC1)C2` (single isomer, unassigned) [Example 109], on SMARCA2, the DC50 is less than 100 nM and the Dmax is greater than 75%. Also, on SMARCA4, the DC50 was less than 100 nM and the Dmax is greater than 75%.
For `CC1(C)CN(CC2CCN(c3ccc4c(c3)C(=O)N([C@H]3CCC(=O)NC3=O)C4)CC2)CCN1C(=O)N1CCN2c3cc(-c4cccc(F)c4O)nnc3NCC2(CF)C1` (single isomer, unassigned) [Example 89], the results for the DC50 on SMARCA2 and on SMARCA4 were less than 100 nM and 100 to 1000 nM, respectively. Moreover, the Dmax is greater than 75% at SMARCA2 and less than 50% at SMARCA4.
The corresponding values for `CCC12CNc3nnc(-c4cccc(F)c4O)cc3N1CCN(C(=O)N1C[C@H](C)N(CC3CCN(c4ccc5c(c4)C(=O)N(C4CCC(=O)NC4=O)C5)CC3)C[C@H]1C)C2` (single isomer, unassigned) [Example 84] are less than 100 nM, less than 100 nM, greater than 75% and 50 to 75%.
Take `CCC12CNc3nnc(-c4cccc(F)c4O)cc3N1CCN(C(=O)N1CCN(CC3CCN(c4ccc5c(c4)C(=O)N([C@H]4CCC(=O)NC4=O)C5)CC3)CC1(C)C)C2` (single isomer, unassigned) [Example 74]: on SMARCA2, the DC50 is less than 100 nM and the Dmax was greater than 75%. On SMARCA4, this compound registered a DC50 of less than 100 nM and a Dmax of 50 to 75%.
Regarding `O=C1CCC(N2Cc3ccc(N4CCN(CC5CCN(C(=O)N6CCN7c8cc(-c9cc(F)cc(F)c9O)nnc8NC[C@H]7C6)CC5)CC4)cc3C2=O)C(=O)N1` (stereo partly drawn) [Example 48, 3-(6-(4-((1-((S)-2-(3,5-difluoro-2-hydroxyphenyl)-6,6a,7,8,9,10-hexahydro-5H-pyrazino[1′,2′:4,5]pyrazino[2,3-c]pyridazine-8-carbonyl)piperidin-4-yl)methyl)piperazin-1-yl)-1-oxoisoindolin-2-yl)piperidine-2,6-dione], at SMARCA2, the DC50 was less than 100 nM and the Dmax was greater than 75%. At SMARCA4, this compound had a DC50 of less than 100 nM and a Dmax of less than 50%.
As to `CC12CNc3nnc(-c4cccc(F)c4O)cc3N1CCN(C[C@H]1CC[C@H](CN3CCN(c4ccc5c(c4)C(=O)N(C4CCC(=O)NC4=O)C5)CC3)CC1)C2` (single isomer, unassigned) [Example 116], the DC50 on SMARCA2 and on SMARCA4 was less than 100 nM in each case.
For the compound `CC12CNc3nnc(-c4cccc(F)c4O)cc3N1CCN(C[C@H]1CC[C@H](CN3CCN(c4ccc5c(c4)C(=O)N(C4CCC(=O)NC4=O)C5)CC3)CC1)C2` (single isomer, unassigned) [Example 115], on SMARCA2, the DC50 was less than 100 nM and the Dmax was greater than 75%. On SMARCA4, the DC50 is less than 100 nM and the Dmax lay within 50 to 75%.
